For seven molecules, IC50 and GI50 results are on record in patent US9120789B2, “1-(5-tert-butyl-2-phenyl-2H-pyrazol-3-yl)-3-[2-fluoro-4-(1-methyl-2-oxo-2,3-dihydro-1H-imidazo[4,5-b]pyridin-7-yloxy)-phenyl]-urea and related compounds and their use in therapy” (CANCER RESEARCH TECHNOLOGY LIMITED, priority 2010, dated 2015).

One assay has as its target B-RAF (Homo sapiens, UniProt P15056). As to the kind of experiment: Assay A - DELFIA kinase assay. The format is biochemical. The conditions noted are these: 100 μM ATP; mean of usually three assays; read-out: Assay A BRAF IC50. The procedure: Biological Methods—Assay A—DELFIA Kinase Assay
Compounds were assessed by a kinase assay performed according to the following protocol.
The following reagents were prepared:
DELFIA Kinase Buffer (DKB):
DKB1 (DKB with B-RAF and MEK Protein):
Combine 4950 μL of DKB and 50 μL of 2.5 mg/mL GST-MEK stock (to give 1 mg of MEK per 40 μL). Then add 22.5 μL of B-RAF to give ˜0.2 μL of B-RAF per 40 μL.
DKB2 (DKB with MEK Protein):
Combine 4950 μL of DKB and 50 μL of 2.5 mg/mL GST-MEK stock (to give […] of MEK per 40 μL). Use 500 μL of this for the blow out (BO) and the empty vector (EV) control.
100 mM stock, dilute to 500 μM to give 100 μM final concentration in assay.
Inhibitors (Test Compounds):
Phospho-MEK1/2 CST #9121S diluted 1:1000 in DELFIA assay buffer (AB). Pre-incubate antibody in the AB for 30 minutes at room temperature prior to use.
Anti-rabbit-Eur labelled secondary Perkin Elmer #AD0105 diluted 1:1000 in DELFIA assay buffer (AB). Pre-incubate antibody in the AB for 30 minutes at room temperature prior to use. (Primary and secondary antibodies were incubated together.)
DELFIA assay buffer Perkin Elmer #4002-0010.
DELFIA enhancement solution Perkin Elmer #4001-0010.
96 well glutathione-coated black plate Perbio #15340.
1. Preblock wells with 5% milk in TBS for 1 hour.
2. Wash wells 3× with 200 μL TBS.
3. Plate out 40 μL of DKB1 for all inhibitors (test compounds), DMSO control, and optionally other control compounds.
4. Plate out 40 μL of DKB2 for BO and EV wells.
5. Add inhibitors (test compounds) at 0.5 μL per well according to desired plate layout.
6. Add 0.5 μL DMSO to vehicle control wells.
7. Add 2 μL of B-RAF to BO and EV wells.
8. Pre-incubate with inhibitors (test compounds) for 10 minutes at room temperature with shaking.
9. Add 10 μL of 500 μM ATP stock, in DKB, to give 100 μM assay concentration.
10. Seal plates with TopSeal and incubate at room temperature with shaking for 45 minutes.
11. Wash plates 3× with 200 μL 0.1% Tween20/Water to terminate reaction.
12. Add 50 μL per well of antibody mix and incubate for 1 hour at room temperature with shaking.
13. Wash plates 3× with 200 μL 0.1% Tween20/Water.
14. Add 100 μL DELFIA enhancement solution per well, cover in foil, and incubate at room temperature for 30 minutes with shaking.
15. Read on Victor using Europium protocol.
(§1) Values for the blank (Empty Vector) are subtracted from all values. The DMSO controls are set as 100% activity and assay points (the response) are calculated as a percentage of the DMSO control. Data are plotted using Graphpad Prism software and a non-linear regression line is calculated using a variable slope sigmoidal dose-response equation: Y=Bottom+[Top−Bottom]/[1+10^((Log EC50−X)*HillSlope)] where X is the logarithm of concentration and Y is the response. The IC50 generated by this procedure is the concentration of the drug that produces a percentage control fluorescence value midway between the saturation, and zero-effect plateaus. Three independent assays are usually performed and the mean IC50 is reported. Biological Methods—Assay B—Cell Based Phosho-ERK Assay

Assay [1] deals with WM266.4 melanoma cell line (mutant BRAF). As to the kind of experiment: Assay C - SRB cell proliferation assay, WM266.4. The conditions noted are these: Homo sapiens, WM 266-4, 120 h; WM266.4, 5 days growth. The format is cell-based. As for the experimental part:
as §1, with “blank (no cells)” for “blank (Empty Vector)”, “the response).” for “the response.”, “Methods—Assay C—SRB Cell Proliferation” for “Methods—Assay B—Cell Based Phosho-ERK”, “Assay (SRB GI50)” for “Assay”
Cell lines (e.g., WM266.4 and A375M melanoma cell lines; SW620 colorectal carcinoma cell line) are routinely cultured in DMEM or RPMI1640 supplemented with 10% foetal bovine serum, at 37° C., in 10% CO2 water saturated atmosphere. Cultures are maintained in exponential growth phase by sub-culturing before having become confluent (3-5 day intervals). Single cell suspensions are prepared by harvesting an 80 cm^2 tissue culture flask with 5 mL commercial trypsin EDTA. After 5 minutes, the detached cells are mixed with 5 mL fully complemented culture medium and centrifugally pelleted (1000 rpm for 7 minutes). After aspirating the supernatant, the cell pellet is re-suspended in 10 mL fresh medium and the cells fully disaggregated by drawing the whole volume up/down 5 times through a 19-gauge needle. The concentration of the cells is determined using a haemocytometer ( 1/10 dilution). A suitable volume to give at least a 2-fold excess for the number of tests being conducted, typically 100-200 mL, is prepared by diluting the cell suspension to 10,000-40,000/mL, and 100 μL/well dispensed into 96 well plates using a programmable 8-channel peristaltic pump, giving 1000-4000 cells/well, leaving column 12 blank. The plates are returned to the incubator for 24 hours to allow the cells to re-attach.
The compounds being tested are prepared at 10 mM in DMSO. Aliquots (24 μL) are diluted into 1.2 mL culture medium giving 200 μM, and 10 serial dilutions of 3× performed by transferring 80 μL to 160 μL. Aliquots (100 μL) of each dilution are added to the wells, using an 8-channel pipettor, thus performing a final further 2× dilution, and giving doses ranging from 100 μM to 0.005 μM. Column 11 receives plain culture medium only. Each compound is tested in quadruplicate, each replicate being the average of four wells.
After a further 5 days growth, the plates are emptied, and the cells are fixed in 10% trichloroacteic acid for 30 minutes at 4° C. After thorough rinsing in running tap water, the plates are dried, and stained by adding 50 μL of a solution of 0.1% sulphorhodamine-B in 1% acetic acid, for 10 minutes at room temperature. The stain is poured out and the plates thoroughly rinsed under a stream of 1% acetic acid, thus removing unbound stain, and dried. The bound stain is taken into solution by addition of 100 μL Tris buffer pH 8, followed by 10 minutes on a plate-shaker (approximately 500 rpm). The absorbance at 540 nm in each well (being proportional to the number of cells present) is determined using a plate reader.
After averaging the blank values in column 12 this was subtracted from all values, and results expressed as a percentage of the untreated value (column 11). […] The GI50 generated by this procedure is the concentration of the drug that produces a percentage control A540 midway between the saturation, and zero-effect plateaus.

Structures are written as SMILES.

B-RAF, sequence (P15056 whole entry): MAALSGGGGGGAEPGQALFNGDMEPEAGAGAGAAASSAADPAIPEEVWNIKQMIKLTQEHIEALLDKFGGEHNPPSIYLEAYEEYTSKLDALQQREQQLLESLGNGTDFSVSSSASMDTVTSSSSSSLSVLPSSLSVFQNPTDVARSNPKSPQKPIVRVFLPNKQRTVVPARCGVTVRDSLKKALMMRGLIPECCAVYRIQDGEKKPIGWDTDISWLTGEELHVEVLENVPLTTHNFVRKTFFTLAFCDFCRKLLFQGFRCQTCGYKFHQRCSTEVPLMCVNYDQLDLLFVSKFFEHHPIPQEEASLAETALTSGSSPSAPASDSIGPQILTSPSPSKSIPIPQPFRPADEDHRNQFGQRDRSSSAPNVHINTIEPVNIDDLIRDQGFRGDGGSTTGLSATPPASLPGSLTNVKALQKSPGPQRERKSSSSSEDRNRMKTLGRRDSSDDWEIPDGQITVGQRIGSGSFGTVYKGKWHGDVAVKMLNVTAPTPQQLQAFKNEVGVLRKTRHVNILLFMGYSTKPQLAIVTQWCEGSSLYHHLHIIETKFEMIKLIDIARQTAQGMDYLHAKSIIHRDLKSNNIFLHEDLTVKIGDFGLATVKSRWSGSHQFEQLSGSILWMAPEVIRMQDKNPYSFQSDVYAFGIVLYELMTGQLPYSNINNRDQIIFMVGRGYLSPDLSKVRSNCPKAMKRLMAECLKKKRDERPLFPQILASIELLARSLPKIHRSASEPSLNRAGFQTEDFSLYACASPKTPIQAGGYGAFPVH

What is called IC50 is the concentration needed to halve the response being measured. As a reminder, the GI50 is the concentration at which growth is held to half of that of the control. A higher GI50 goes with less potent growth inhibition. As for `Cn1c(=O)[nH]c2nccc(Oc3ccc(NC(=O)Nc4cc(C(C)(C)C)nn4-c4ccccc4)c(F)c3)c21` [AA-01, 1-(3-Tert-butyl-1-phenyl-1H-pyrazol-5-yl)-3-(2-fluoro-4-(1-N-methyl-2-oxo-2,3-dihydro-1H-imidazo[4,5-b]pyridin-7-yloxy)phenyl)urea], the IC50 at B-RAF stood at 270 nM. Also, the GI50 in assay [1] came out at 52 nM.
Taken in the same sequence, the figures for `Cn1c(=O)[nH]c2nccc(Oc3ccc(NC(=O)Nc4cc(C(C)(C)C)nn4-c4ccccc4)c4ccccc34)c21` [BB-01, 1-(3-Tert-butyl-1-phenyl-1H-pyrazol-5-yl)-3-(4-(1-methyl-2-oxo-2,3-dihydro-1H-imidazo[4,5-b]pyridin-7-yloxy)naphthalen-1-yl)urea] were 250 nM and 8 nM.
Taken in the same sequence, the figures for `Cc1ccc(-n2nc(C(C)(C)C)cc2NC(=O)Nc2ccc(Oc3ccnc4[nH]c(=O)n(C)c34)c3ccccc23)cc1` [BB-02, 1-(1-N-p-tolyl-3-tert-butyl-pyrazol-5-yl)-3-(4-(2-oxo-2,3-dihydro-1-N-methyl-1H-imidazo[4,5-b]pyridin-7-yl-oxy)naphthalen-1-yl)urea] were 2280 nM and 16 nM.
Taken in the same sequence, the figures for `CC(C)(C)c1cc(NC(=O)Nc2ccc(Oc3ccnc4[nH]c(=O)[nH]c34)cc2)n(-c2ccccc2)n1` [XX-01, 1-(5-Tert-butyl-2-phenyl-2H-pyrazol-3-yl)-3-[4-(2-oxo-2,3-dihydro-1H-imidazo[4,5-b]pyridin-7-yloxy)-phenyl]-urea] were 94 nM and 390 nM.
As to `Cc1ccc(-n2nc(C(C)(C)C)cc2NC(=O)Nc2ccc(Oc3ccnc4[nH]c(=O)n(C)c34)cc2)cc1` [XX-02, 1-(1-N-p-tolyl-3-tert-butyl-pyrazol-5-yl)-3-(4-(2-oxo-2,3-dihydro-1-N-methyl-1H-imidazo[4,5-b]pyridin-7-yl-oxy)phenyl)urea], the IC50 at B-RAF came out at 200 nM. Moreover, in assay [1], the GI50 is 66 nM.
Taken in the same sequence, the figures for `Cn1c(=O)n(C)c2c(Oc3ccc(NC(=O)Nc4cc(C(C)(C)C)nn4-c4ccccc4)c(F)c3)ccnc21` [XX-03, 1-(3-Tert-butyl-1-phenyl-1H-pyrazol-5-yl)-3-(4-(1,3-dimethyl-2-oxo-2,3-dihydro-1H-imidazo[4,5-b]pyridin-7-yloxy)-2-fluorophenyl)urea] were 1090 nM and 33 nM.
Consider `CC(C)(C)c1cc(NC(=O)Nc2ccc(Oc3ccnc4[nH]c(=O)[nH]c34)cc2)n(-c2ccc(F)cc2)n1` [XX-04, 1-[5-tert-Butyl-2-(4-fluoro-phenyl)-2H-pyrazol-3-yl]-3-[4-(2-oxo-2,3-dihydro-1H-imidazo[4,5-b]pyridin-7-yloxy)-phenyl]urea], for which the IC50 at B-RAF worked out at 240 nM. In assay [1], this molecule came in with a concentration for 50% growth inhibition (GI50) of 20 nM.
